Like-named read-outs stand apart in the source and are kept apart here.
Columns and labels:
[1] = tested on: JeKo-1 cells; assay: Antiproliferative effect, MTS cell viability assay, JeKo-1 cells; format: cell-based; details: JeKo-1 mantle cell lymphoma cells, read-out: IC50 (anti-proliferation) JeKO-1 cells
Procedure, shortened: (§1)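 MTS read-out, A490 of formazan from metabolically active cells; compound 0–10 μM (0, 0.001, 0.01, 0.1, 1, 10 μM), 72 h exposure.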

[2] = tested on: Mino cells; assay: Antiproliferative effect, MTS cell viability assay, Mino cells; format: cell-based; details: Mino mantle cell lymphoma cells, read-out: IC50 (anti-proliferation) Mino cells
Procedure, shortened: as §1

[3] = biological target: BTK (Homo sapiens, UniProt Q06187); assay: Degradation of BTK protein in Namalwa cells (Western blot; DC50, Dmax)
BTK, sequence (Q06187 whole entry): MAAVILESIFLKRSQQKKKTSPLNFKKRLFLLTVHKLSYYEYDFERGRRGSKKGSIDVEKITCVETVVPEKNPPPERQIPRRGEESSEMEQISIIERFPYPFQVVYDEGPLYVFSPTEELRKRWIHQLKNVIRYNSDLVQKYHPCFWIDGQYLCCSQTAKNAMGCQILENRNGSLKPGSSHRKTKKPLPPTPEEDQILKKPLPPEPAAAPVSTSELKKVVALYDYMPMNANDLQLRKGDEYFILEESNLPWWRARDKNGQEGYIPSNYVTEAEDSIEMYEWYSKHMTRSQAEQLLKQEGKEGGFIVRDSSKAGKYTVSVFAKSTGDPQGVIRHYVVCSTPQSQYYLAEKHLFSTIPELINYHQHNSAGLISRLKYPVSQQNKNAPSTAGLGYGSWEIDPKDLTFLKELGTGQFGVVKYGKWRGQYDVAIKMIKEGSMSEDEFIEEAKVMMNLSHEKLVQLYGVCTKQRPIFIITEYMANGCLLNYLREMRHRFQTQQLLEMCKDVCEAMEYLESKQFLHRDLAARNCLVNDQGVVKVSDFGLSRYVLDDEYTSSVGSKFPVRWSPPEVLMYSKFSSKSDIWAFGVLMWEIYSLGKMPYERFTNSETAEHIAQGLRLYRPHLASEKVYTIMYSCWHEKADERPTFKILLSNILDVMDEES

[4] = read-out: DC50 (BTK degradation), concentration giving 50% reduction of BTK expression level, cell line not given
[5] = read-out: Dmax (BTK degradation)
[6] = BTK degradation, cell line not given

| Compound | IC50 [1] | IC50 [2] | Dmax (BTK degradation) ([3]; cell line not given) | DC50 [3, 4] | IC50 ([1]; Homo sapiens) | IC50 ([2]; Homo sapiens, MINO) | Dmax [3, 5] | Dmax [3] | DC50 [3, 6] |
| --- | --- | --- | --- | --- | --- | --- | --- | --- | --- |
| Nc1ncnc2c1c(-c1ccc(Oc3ccccc3)cc1)nn2C1CCC(C(=O)N2CC(N3CCN(c4ccc5c(c4)C(=O)N(C4CCC(=O)NC4=O)C5=O)CC3)C2)CC1 (stereo not shown) [Compound 511, 5-(4-(1-(4-(4-amino-3-(4-phenoxyphenyl)-1H-pyrazolo[3,4-d]pyrimidin-1-yl)cyclohexane-1-carbonyl)-152-zetidine-3-yl)piperazin-1-yl)-2-(2,6-dioxopiperidin-3-yl)isoindoline-1,3-dione] | < 1000 nM | < 1000 nM | A (A >90%) | < 10 nM | – | – | – | – | – |
| Nc1ncnc2c1c(-c1ccc(Oc3ccccc3)cc1)nn2[C@@H]1CCCN(C2CN(C(=O)N3CCC(N4CCN(c5ccc6c(c5)CN(C5CCC(=O)NC5=O)C6=O)CC4)CC3)C2)C1 (stereo partly drawn) [Compound 482, 3-(5-(4-(1-(3-((R)-3-(4-amino-3-(4-phenoxyphenyl)-1H-pyrazolo[3,4-d]pyrimidin-1-yl)piperidin-1-yl)azetidine-1-carbonyl)piperidin-4-yl)piperazin-1-yl)-1-oxoisoindolin-2-yl)piperidine-2,6-dione] | – | – | – | < 10 nM | 1000 to 10000 nM | < 1000 nM | > 90% | – | – |
| Nc1ncnc2c1c(-c1ccc(Oc3ccccc3)cc1)nn2C1CCN(CCCC#Cc2ccc(N3CCC(=O)NC3=O)cc2)CC1 [Compound 538, 1-(4-(5-(4-(4-amino-3-(4-phenoxyphenyl)-1H-pyrazolo[3,4-d]pyrimidin-1-yl)piperidin-1-yl)pent-1-yn-1-yl)phenyl)dihydropyrimidine-2,4(1H,3H)-dione] | – | – | – | > 50 nM | > 10000 nM | > 10000 nM | > 50% | – | – |
| NC(=O)c1c(-c2ccc(Oc3ccccc3)cc2)nn2c1NCC[C@H]2C1CCN(CC2CCN(CCC3CCN(c4ccc5c(c4)C(=O)N(C4CCC(=O)NC4=O)C5=O)CC3)CC2)CC1 (stereo partly drawn) [Compound 333, (7S)-7-(1-((1-(2-(1-(2-(2,6-dioxopiperidin-3-yl)-1,3-dioxoisoindolin-5-yl)piperidin-4-yl)ethyl)piperidin-4-yl)methyl)piperidin-4-yl)-2-(4-phenoxyphenyl)-4,5,6,7-tetrahydropyrazolo[1,5-a]pyrimidine-3-carboxamide] | – | – | – | – | > 10000 nM | 1000 to 10000 nM | – | > 75% | 10 to 50 nM |
| NC(=O)c1c(-c2ccc(Oc3ccccc3)cc2)nn2c1NCCC2C1CCN(C2CCN(CC3CCN(c4ccc5c(c4)CN(C4CCC(=O)NC4=O)C5=O)CC3)CC2)CC1 (stereo not shown) [Compound 306, 7-(1′-((1-(2-(2,6-dioxopiperidin-3-yl)-1-oxoisoindolin-5-yl)piperidin-4-yl)methyl)-[1,4′-bipiperidin]-4-yl)-2-(4-phenoxyphenyl)-4,5,6,7-tetrahydropyrazolo[1,5-a]pyrimidine-3-carboxamide] | – | – | – | – | 1000 to 10000 nM | 1000 to 10000 nM | – | > 90% | 10 to 50 nM |
| Nc1ncnc2c1c(-c1ccc(Oc3ccccc3)cc1)nn2C1CCN(CCN2CCN(CCCSc3ccc4c(c3)C(=O)N(C3CCC(=O)NC3=O)C4=O)CC2)CC1 (stereo not shown) [Compound 467, 5-((3-(4-(2-(4-(4-amino-3-(4-phenoxyphenyl)-1H-pyrazolo[3,4-d]pyrimidin-1-yl)piperidin-1-yl)ethyl)piperazin-1-yl)propyl)thio)-2-(2,6-dioxopiperidin-3-yl)isoindoline-1,3-dione] | – | – | – | 10 to 50 nM | 1000 to 10000 nM | 1000 to 10000 nM | > 90% | – | – |
| NC(=O)c1c(-c2ccc(Oc3ccccc3)cc2)nn2c1NCCC2C1CCN(C2CCN(C(=O)N3CCN(C4CCN(c5ccc6c(c5)C(=O)N(C5CCC(=O)NC5=O)C6=O)CC4)CC3)CC2)CC1 (stereo not shown) [Compound 345, 7-(1′-(4-(1-(2-(2,6-dioxopiperidin-3-yl)-1,3-dioxoisoindolin-5-yl)piperidin-4-yl)piperazine-1-carbonyl)-[1,4′-bipiperidin]-4-yl)-2-(4-phenoxyphenyl)-4,5,6,7-tetrahydropyrazolo[1,5-a]pyrimidine-3-carboxamide] | – | – | – | – | 1000 to 10000 nM | 1000 to 10000 nM | – | > 90% | < 10 nM |
| Nc1ncnc2c1c(-c1ccc(Oc3ccccc3)cc1)nn2[C@@H]1CCCN(C2CCN(C(=O)N3CCC(CCCN4CCC(c5ccc6c(c5)CN(C5CCC(=O)NC5=O)C6=O)CC4)CC3)CC2)C1 (stereo partly drawn) [Compound 198, 3-(5-(1-(3-(1-((R)-3-(4-amino-3-(4-phenoxyphenyl)-1H-pyrazolo[3,4-d]pyrimidin-1-yl)-[1,4′-bipiperidine]-1′-carbonyl)piperidin-4-yl)propyl)piperidin-4-yl)-1-oxoisoindolin-2-yl)piperidine-2,6-dione] | – | – | – | – | 1000 to 10000 nM | 1000 to 10000 nM | – | > 75% | 10 to 50 nM |
| NC(=O)c1c(-c2ccc(Oc3ccccc3)cc2)nn2c1NCCC2C1CCN(CC2CCN(C(=O)N3CCN(Cc4ccc5c(c4)CN(C4CCC(=O)NC4=O)C5=O)CC3)CC2)CC1 (stereo not shown) [Compound 360, 7-(1-((1-(4-((2-(2,6-dioxopiperidin-3-yl)-1-oxoisoindolin-5-yl)methyl)piperazine-1-carbonyl)piperidin-4-yl)methyl)piperidin-4-yl)-2-(4-phenoxyphenyl)-4,5,6,7-tetrahydropyrazolo[1,5-a]pyrimidine-3-carboxamide] | – | – | – | – | > 10000 nM | > 10000 nM | – | > 75% | > 50 nM |
| NC(=O)c1c(-c2ccc(Oc3ccccc3)cc2)nn2c1NCCC2C1CCN(CC2CCN(CC3CCN(c4ccc5c(c4)C(=O)N(C4CCC(=O)NC4=O)C5=O)CC3)CC2)CC1 (stereo not shown) [Compound 313, 7-(1-((1-((1-(2-(2,6-dioxopiperidin-3-yl)-1,3-dioxoisoindolin-5-yl)piperidin-4-yl)methyl)piperidin-4-yl)methyl)piperidin-4-yl)-2-(4-phenoxyphenyl)-4,5,6,7-tetrahydropyrazolo[1,5-a]pyrimidine-3-carboxamide] | – | – | – | – | 1000 to 10000 nM | 1000 to 10000 nM | – | > 90% | 10 to 50 nM |
| NC1=NC=NC2C1C(c1ccc(Oc3ccccc3)cc1)=NN2C1CCN(C(=O)N2CC(C3CN(c4ccc5c(c4)CN(C4CCC(=O)NC4=O)C5=O)C3)C2)CC1 (stereo not shown) [Compound 494, 3-(5-(1′-(4-(4-amino-3-(4-phenoxyphenyl)-3a,7a-dihydro-1H-pyrazolo[3,4-d]pyrimidin-1-yl)piperidine-1-carbonyl)-[3,3′-biazetidin]-1-yl)-1-oxoisoindolin-2-yl)piperidine-2,6-dione] | – | – | – | < 10 nM | < 1000 nM | < 1000 nM | > 90% | – | – |
| Nc1ncnc2c1c(-c1ccc(Oc3ccccc3)cc1)nn2[C@@H]1CCCN(CCNC(=O)C2CCN(c3ccc4c(c3)C(=O)N(C3CCC(=O)NC3=O)C4=O)CC2)C1 (stereo partly drawn) [Compound 527, N-(2-((R)-3-(4-amino-3-(4-phenoxyphenyl)-1H-pyrazolo[3,4-d]pyrimidin-1-yl)piperidin-1-yl)ethyl)-1-(2-(2,6-dioxopiperidin-3-yl)-1,3-dioxoisoindolin-5-yl)piperidine-4-carboxamide] | – | – | – | 10 to 50 nM | 1000 to 10000 nM | < 1000 nM | > 75% | – | – |
| Nc1ncnc2c1c(-c1ccc(Oc3ccccc3)cc1)nn2C1CCN(C2CCN(C(=O)N3CCC(CN4CCC(c5ccc6c(c5)C(=O)N(C5CCC(=O)NC5=O)C6=O)CC4)CC3)CC2)CC1 (stereo not shown) [Compound 243, 5-(1-((1-(4-(4-amino-3-(4-phenoxyphenyl)-1H-pyrazolo[3,4-d]pyrimidin-1-yl)-[1,4′-bipiperidine]-1′-carbonyl)piperidin-4-yl)methyl)piperidin-4-yl)-2-(2,6-dioxopiperidin-3-yl)isoindoline-1,3-dione] | – | – | – | – | 1000 to 10000 nM | 1000 to 10000 nM | – | > 90% | < 10 nM |
| Nc1ncnc2c1c(-c1ccc(Oc3ccccc3)cc1)nn2C1CCN(C2CCN(C(=O)N3CCC(CCC4CCN(c5ccc6c(c5)CN(C5CCC(=O)NC5=O)C6=O)CC4)CC3)CC2)CC1 (stereo not shown) [Compound 256, 3-(5-(4-(2-(1-(4-(4-amino-3-(4-phenoxyphenyl)-1H-pyrazolo[3,4-d]pyrimidin-1-yl)-[1,4′-bipiperidine]-1′-carbonyl)piperidin-4-yl)ethyl)piperidin-1-yl)-1-oxoisoindolin-2-yl)piperidine-2,6-dione] | – | – | – | – | 1000 to 10000 nM | < 1000 nM | – | > 90% | < 10 nM |
| NC(=O)c1c(-c2ccc(Oc3ccccc3)cc2)nn2c1NCC[C@H]2C1CCN(C2CCN(C(=O)N3CCC(N4CCC(c5ccc6c(c5)C(=O)N(C5CCC(=O)NC5=O)C6=O)CC4)CC3)CC2)CC1 (stereo partly drawn) [Compound 387, (7S)-7-(1′-(4-(2-(2,6-dioxopiperidin-3-yl)-1,3-dioxoisoindolin-5-yl)-[1,4′-bipiperidine]-1′-carbonyl)-[1,4′-bipiperidin]-4-yl)-2-(4-phenoxyphenyl)-4,5,6,7-tetrahydropyrazolo[1,5-a]pyrimidine-3-carboxamide] | – | – | – | – | 1000 to 10000 nM | 1000 to 10000 nM | – | > 90% | 10 to 50 nM |
| Nc1ncnc2c1c(-c1ccc(Oc3ccccc3)cc1)nn2C1CCN(CC2CN(C[C@H]3CCN(c4ccc5c(c4)C(=O)N(C4CCC(=O)NC4=O)C5=O)C3)C2)CC1 (stereo partly drawn) [Compound 443a, 5-((R)-3-((3-((4-(4-amino-3-(4-phenoxyphenyl)-1H-pyrazolo[3,4-d]pyrimidin-1-yl)piperidin-1-yl)methyl)azetidin-1-yl)methyl)pyrrolidin-1-yl)-2-(2,6-dioxopiperidin-3-yl)isoindoline-1,3-dione] | – | – | – | < 10 nM | < 1000 nM | < 1000 nM | > 90% | – | – |
